Measurements taken from patent US20120138290A1, “METHODS TO STIMULATE BIOGENIC METHANE PRODUCTION FROM HYDROCARBON-BEARING FORMATIONS” (SYNTHETIC GENOMICS, INC., priority 2010, published 2012).
“And” between values parts separate entries of the source, which are not always exact repeats. Identical values can stand only once. Like-named read-outs stand apart in the source and are kept apart here.

System: functional microbial subcommunity (inoculum 2L-245 from upflow reactor)
Experiment: Stimulation of methane production: batch cultures with additive/stimulant, with or without coal, headspace methane by gas chromatography
Assay type: cell-based
Protocol: The availability of an inoculum of a functional microbial subcommunity capable of producing methane from coal in vitro prompted laboratory experiments where various stimulants were tested for their effect on methane production. […] The experiments were conducted at three different levels of additives (0.5×, 1× and 2×): additives (stimulants) were added in the following three concentrations. […] DMY media: DM media composition in milli-Q water is made as described above with the addition of 0.5 g/L yeast extract. DMSC media: DM media in milli-Q water is made as described above with the addition of 100 g/L sterile, anaerobic, sub-bituminous coal from the San Juan Basin. DMSCY media: DM media in milli-Q water is made as described above with the addition of 100 g/L sterile, anaerobic, sub-bituminous coal from the San Juan Basin and 0.5 g/L yeast extract. The coal used in these experiments originated from the San Juan Basin (BHP Billiton, Tex.). […] Each stimulant was tested in the presence or absence of coal. The experiments were conducted at three different concentrations of additives (0.5× (low), 1× (medium), and 2× (high)) as described above. Each sample type was conducted in 4 replicates. […] Control sample types were media alone, media plus coal, media plus yeast extract and media plus coal and yeast extract. At each time point, headspace measurements were taken using gas chromatography (microGC […], Agilent Technologies, Inc.). […] Each experiment was performed in quadruplicate. Methane at time 0 was assumed to be 0%.

[1] = DMSCY (coal), 2.0 mM KCl, week 1
[2] = DMSCY (coal), 2.0 mM KCl, week 3
[3] = DMSCY (coal), 2.0 mM KCl, week 5
[4] = DMSCY (coal), 4.0 mM KCl, week 1
[5] = DMSCY (coal), 4.0 mM KCl, week 3
[6] = DMSCY (coal), 4.0 mM KCl, week 5
[7] = DMSCY (coal), 8.0 mM KCl, week 1
[8] = DMSCY (coal), 8.0 mM KCl, week 3
[9] = DMSCY (coal), 8.0 mM KCl, week 5
[10] = DMY (no coal), 2.0 mM KCl, week 1
[11] = DMY (no coal), 2.0 mM KCl, week 3
[12] = DMY (no coal), 2.0 mM KCl, week 5
[13] = DMY (no coal), 4.0 mM KCl, week 1
[14] = DMY (no coal), 4.0 mM KCl, week 3
[15] = DMY (no coal), 4.0 mM KCl, week 5
[16] = DMY (no coal), 8.0 mM KCl, week 1
[17] = DMY (no coal), 8.0 mM KCl, week 3
[18] = DMY (no coal), 8.0 mM KCl, week 5
[19] = DMSCY (coal), 5 mM NH4Cl, week 1
[20] = DMSCY (coal), 5 mM NH4Cl, week 3
[21] = DMSCY (coal), 5 mM NH4Cl, week 5
[22] = DMSCY (coal), 10 mM NH4Cl, week 1
[23] = DMSCY (coal), 10 mM NH4Cl, week 3
[24] = DMSCY (coal), 10 mM NH4Cl, week 5
[25] = DMSCY (coal), 20 mM NH4Cl, week 1
[26] = DMSCY (coal), 20 mM NH4Cl, week 5
[27] = DMY (no coal), 5 mM NH4Cl, week 1
[28] = DMY (no coal), 5 mM NH4Cl, week 3
[29] = DMY (no coal), 5 mM NH4Cl, week 5
[30] = DMY (no coal), 10 mM NH4Cl, week 1
[31] = DMY (no coal), 20 mM NH4Cl, week 1
[32] = DMY (no coal), 20 mM NH4Cl, week 3
[33] = DMY (no coal), 20 mM NH4Cl, week 5
[34] = DMSCY (coal), 5.0 μM Na2MoO4, week 1
[35] = DMSCY (coal), 5.0 μM Na2MoO4, week 3
[36] = DMSCY (coal), 5.0 μM Na2MoO4, week 5
[37] = DMSCY (coal), 10 μM Na2MoO4, week 1
[38] = DMSCY (coal), 10 μM Na2MoO4, week 3
[39] = DMSCY (coal), 10 μM Na2MoO4, week 5
[40] = DMY (no coal), 5.0 μM Na2MoO4, week 1
[41] = DMY (no coal), 5.0 μM Na2MoO4, week 3
[42] = DMY (no coal), 5.0 μM Na2MoO4, week 5
[43] = DMY (no coal), 10 μM Na2MoO4, week 1
[44] = DMY (no coal), 10 μM Na2MoO4, week 3
[45] = DMY (no coal), 10 μM Na2MoO4, week 5

[Cl-].[K+] [KCl, potassium chloride]
methane production (Average) [1]: 0.34 | methane production (RepA-Rep D) [1]: 0.35 and 0.30 and 0.32 and 0.39 | methane production (Average) [2]: 1.14 | methane production (RepA-Rep D) [2]: 1.12 and 1.25 and 1.04 and 1.16 | methane production (Average) [3]: 1.39 | methane production (RepA-Rep D) [3]: 1.32 and 1.49 and 1.30 and 1.47 | methane production (Average) [4]: 0.4 | methane production (RepA-Rep D) [4]: 0.44 and 0.43 and 0.46 | methane production (Average) [5]: 1.50 | methane production (RepA-Rep D) [5]: 1.35 and 1.46 and 1.60 and 1.57 | methane production (Average) [6]: 1.69 | methane production (RepA-Rep D) [6]: 1.59 and 1.87 and 1.70 | methane production (Average) [7]: 0.3936 | methane production (RepA-Rep D) [7]: 0.3871 and 0.3364 and 0.4219 and 0.429 | methane production (Average) [8]: 1.327 | methane production (RepA-Rep D) [8]: 1.346 and 1.301 and 1.36 and 1.304 | methane production (Average) [9]: 1.562 | methane production (RepA-Rep D) [9]: 1.564 and 1.478 and 1.557 and 1.649 | methane production (Average) [10]: 0.30 | methane production (RepA-Rep D) [10]: 0.29 and 0.30 and 0.32 | methane production (Average) [11]: 0.81 | methane production (RepA-Rep D) [11]: 0.99 and 0.79 and 0.78 and 0.70 | methane production (Average) [12]: 0.77 | methane production (RepA-Rep D) [12]: 0.78 and 0.75 and 0.79 | methane production (Average) [13]: 0.23 | methane production (RepA-Rep D) [13]: 0.23 and 0.22 and 0.24 | methane production (Average) [14]: 0.26 | methane production (RepA-Rep D) [14]: 0.24 and 0.26 and 0.29 | methane production (Average) [15]: 0.29 | methane production (RepA-Rep D) [15]: 0.23 and 0.26 and 0.40 | methane production (Average) [16]: 0.2015 | methane production (RepA-Rep D) [16]: 0.2005 and 0.2037 and 0.195 and 0.2068 | methane production (Average) [17]: 0.2178 | methane production (RepA-Rep D) [17]: 0.2211 and 0.2119 and 0.2206 and 0.2177 | methane production (Average) [18]: 0.2151 | methane production (RepA-Rep D) [18]: 0.2177 and 0.2082 and 0.2231 and 0.2112 | effect on methanogenesis (absence of coal (DMY), >2 mM KCl): greatly decreased methanogenesis | trend in methane production (week 5, KCl-containing samples): decreasing trend

Cl.N [NH4Cl, ammonium chloride]
methane production (Average) [19]: 0.31 | methane production (RepA-Rep D) [19]: 0.35 and 0.27 and 0.31 and 0.30 | methane production (Average) [20]: 1.11 | methane production (RepA-Rep D) [20]: 1.24 and 1.03 and 1.13 | methane production (Average) [21]: 1.50 | methane production (RepA-Rep D) [21]: 1.67 and 1.41 and 1.48 and 1.43 | methane production (Average) [22]: 0.25 | methane production (RepA-Rep D) [22]: 0.25 and 0.22 and 0.28 | methane production (Average) [23]: 1.30 | methane production (RepA-Rep D) [23]: 1.22 and 1.43 and 1.41 and 1.14 | methane production (Average) [24]: 2.22 | methane production (RepA-Rep D) [24]: 1.98 and 2.70 and 2.67 and 1.54 | methane production (Average) [25]: 0.22 | methane production (RepA-Rep D) [25]: 0.24 and 0.22 and 0.21 | methane production (Average) (DMSCY (coal), 20 mM NH4Cl, week 3): 1.18 | methane production (Average) [26]: 1.46 | methane production (RepA-Rep D) [26]: 1.63 and 1.48 and 1.37 and 1.36 | methane production (Average) [27]: 0.26 | methane production (RepA-Rep D) [27]: 0.26 and 0.27 | methane production (Average) [28]: 0.71 | methane production (RepA-Rep D) [28]: 0.74 and 0.68 and 0.67 | methane production (Average) [29]: 0.66 | methane production (RepA-Rep D) [29]: 0.69 and 0.65 and 0.62 | methane production (Average) [30]: 0.20 | methane production (RepA-Rep D) [30]: 0.22 and 0.21 and 0.15 | methane production (Average) (DMY (no coal), 10 mM NH4Cl, week 3): 0.57 | methane production (Average) (DMY (no coal), 10 mM NH4Cl, week 5): 0.58 | methane production (Average) [31]: 0.22 | methane production (RepA-Rep D) [31]: 0.23 and 0.22 and 0.21 | methane production (Average) [32]: 0.77 | methane production (RepA-Rep D) [32]: 0.80 and 0.78 and 0.76 | methane production (Average) [33]: 0.78 | methane production (RepA-Rep D) [33]: 0.80 and 0.79 and 0.76 and 0.77 | effect on the production of methane (intermediate concentration of the stimulant (FIGS. 1A, 1B, 2A)): statistically significant positive effect | dependence of methane production on coal (with or without coal): only observed in presence of coal

[Na+].[Na+].[O]=[Mo](=[O])([O-])[O-] [Na2MoO4, sodium molybdic]
methane production (Average) [34]: 0.34 | methane production (RepA-Rep D) [34]: 0.39 and 0.28 and 0.31 | methane production (Average) [35]: 1.19 | methane production (RepA-Rep D) [35]: 1.13 and 1.09 and 1.14 and 1.40 | methane production (Average) [36]: 1.41 | methane production (RepA-Rep D) [36]: 1.39 and 1.31 and 1.29 and 1.63 | methane production (Average) [37]: 0.44 | methane production (RepA-Rep D) [37]: 0.43 and 0.47 and 0.44 | methane production (Average) [38]: 1.10 | methane production (RepA-Rep D) [38]: 1.03 and 1.15 and 1.14 and 1.07 | methane production (Average) [39]: 1.13 | methane production (RepA-Rep D) [39]: 1.11 and 1.14 and 1.15 and 1.13 | methane production (Average) [40]: 0.29 | methane production (RepA-Rep D) [40]: 0.25 and 0.27 and 0.30 and 0.33 | methane production (Average) [41]: 0.83 | methane production (RepA-Rep D) [41]: 0.77 and 0.85 and 0.79 and 0.91 | methane production (Average) [42]: 0.79 | methane production (RepA-Rep D) [42]: 0.76 and 0.78 and 0.74 and 0.87 | methane production (Average) [43]: 0.29 | methane production (RepA-Rep D) [43]: 0.30 and 0.26 and 0.32 | methane production (Average) [44]: 0.82 | methane production (RepA-Rep D) [44]: 0.85 and 0.71 and 0.81 and 0.90 | methane production (Average) [45]: 0.77 | methane production (RepA-Rep D) [45]: 0.77 and 0.72 and 0.74 and 0.83 | correlation of methane production with molybdate added to the cultures (FIG. 3B): negative correlation | difference of effects with or without coal (molybdate, P=0.063): not statistically significantly different

O=S([O-])([O-])=S.[Na+].[Na+] [Na2S2O3, sodium thiosulfate]
dependence of methane production on coal: only observed in the presence of coal | effect on the production of methane: statistically significant positive effect
